In brackets after ≈: the same amount, converted by molar mass. Like-named read-outs stand apart in the source and are kept apart here.
System: Klebsiella pneumonia culture
Experiment: Optical third-derivative MIC method, culture in broth
Format: cell-based
Details: for HR? at MIC (25%) / HR? at MIC (40%) / HR? at MIC (60%) / HR? at MIC (75%): ratio MIC T2/T1; for MIC: Klebsiella pneumoniae
Excerpt: The method of FIG. 1 starts at a time equal to zero, t0 (1). Preferably, said t0 is the moment a pure bacteria culture is finished being prepared. Alternatively, said t0 is the moment all wells contain both said bacteria culture and said antimicrobial drug. After the starting of the experiment each well is periodically illuminated with a light source and the intensity of the transmitted light is detected with a photodetector (2). Preferably, each well is illuminated and the intensity of the transmitted light is detected every hour (2). More preferably, each well is illuminated and the intensity of the transmitted light is detected every 5 to 15 min. After a predetermined time length, preferably after 4 hours, a first, a second and a third derivative of said measured intensity is calculated (3) in a first and a second time frame for each well. Preferably, said second time frame is the last measured time frame after the test has been running for said predetermined time length, and said first time frame is the time frame preceding the second time frame. More preferably, said first time frame is between two and three hours and said second time frame is between three and four hours. After the calculation of said derivatives, said first derivative in said second time frame of said reference well is compared to a growth speed threshold value (4). Preferably, said growth speed threshold value is 0.166 (4). If said first derivative in said second time frame of said reference well is larger than or equal to said growth speed threshold value said bacteria culture is classified as Type I (4). If said first derivative in said second time frame of said reference well is smaller than said growth speed threshold value said bacteria culture is classified as Type II (4). Subsequently, independent of the classification of the bacteria culture according to the two types, the method comprises the following steps which are performed for each well or for all wells except said reference well. Both said first and said second time frames are evaluated to see if there is an inflection point present in the second derivative in said first and/or said second time frame (5).
If said first and/or said second time frame comprise said inflection point than said third derivative in said first time frame is compared to said third derivative in said second time frame (6). If said third derivative in said first time frame is larger than said third derivative in said second time frame, then said first time frame and said second time frame are selected as a first and second time frame to be used in a minimal inhibitory concentration determination method (10). If said third derivative in said first time frame is not larger than said third derivative in said second time frame, then said well is illuminated again after a certain time period, preferably an hour, more preferably 5 to 15 min after said predetermined time length said, with a light source and the intensity of the transmitted light is detected with a photodetector forming a new time frame subsequent to said second time frame (7). A third derivative, and possibly also a first and/or a second derivative, is calculated in said new time frame (7). Further, in step (7) a new first time frame is put equal to said second time frame and a new second time frame to equal to said new time frame. Subsequently, said third derivative in said new first time frame is compared to said third derivative in said new second time frame (8). If said derivative in said new first time frame is larger than said third derivative in said new second time frame, then said new first time frame and said new second time frame are selected as a first and second time frame to be used in a minimal inhibitory concentration determination method (10). […]

C[C@@H](O)[C@H]1C(=O)N2C(C(=O)O)=C(SCCN=CN)C[C@H]12 [imipenem]
HR? at MIC (25%) (KP/38.3002, Table 5): no (If the ratio of the MIC value in the second time frame over the MIC value in the first time frame is lower than or equal to 4 then the ratio is labelled not to be heteroresistant)
HR? at MIC (40%) (KP/38.3002, Table 5): yes (If the ratio of the MIC value in the second time frame over the MIC value in the first time frame is higher than or equal to 8 then the ratio is labelled to be heteroresistant)
HR? at MIC (60%) (KP/38.3002, Table 5): yes (If the ratio of the MIC value in the second time frame over the MIC value in the first time frame is higher than or equal to 8 then the ratio is labelled to be heteroresistant)
HR? at MIC (75%) (KP/38.3002, Table 5): yes (If the ratio of the MIC value in the second time frame over the MIC value in the first time frame is higher than or equal to 8 then the ratio is labelled to be heteroresistant)
HR? at MIC (25%) (KP/38.3002, Table 10): yes (If the ratio of the MIC value in the second time frame over the MIC value in the first time frame is higher than or equal to 8 then the ratio is labelled to be heteroresistant)
HR? at MIC (40%) (KP/38.3002, Table 10): yes (If the ratio of the MIC value in the second time frame over the MIC value in the first time frame is higher than or equal to 8 then the ratio is labelled to be heteroresistant)
HR? at MIC (60%) (KP/38.3002, Table 10): yes (If the ratio of the MIC value in the second time frame over the MIC value in the first time frame is higher than or equal to 8 then the ratio is labelled to be heteroresistant)
HR? at MIC (75%) (KP/38.3002, Table 10): yes (If the ratio of the MIC value in the second time frame over the MIC value in the first time frame is higher than or equal to 8 then the ratio is labelled to be heteroresistant)
HR? at MIC (40%) (KP/38.3002, Table 11): yes (If the ratio of the MIC value in the second time frame over the MIC value in the first time frame is higher than or equal to 8 then the ratio is labelled to be heteroresistant)
HR? at MIC (60%) (KP/38.3002, Table 11): yes (If the ratio of the MIC value in the second time frame over the MIC value in the first time frame is higher than or equal to 8 then the ratio is labelled to be heteroresistant)
HR? at MIC (75%) (KP/38.3002, Table 11): yes (If the ratio of the MIC value in the second time frame over the MIC value in the first time frame is higher than or equal to 8 then the ratio is labelled to be heteroresistant)
HR? at MIC (25%) (KP/153.4346): no (If the ratio of the MIC value in the second time frame over the MIC value in the first time frame is lower than or equal to 4 then the ratio is labelled not to be heteroresistant)
HR? at MIC (40%) (KP/153.4346): no (If the ratio of the MIC value in the second time frame over the MIC value in the first time frame is lower than or equal to 4 then the ratio is labelled not to be heteroresistant)
HR? at MIC (60%) (KP/153.4346): yes (If the ratio of the MIC value in the second time frame over the MIC value in the first time frame is higher than or equal to 8 then the ratio is labelled to be heteroresistant)
HR? at MIC (75%) (KP/153.4346): yes (If the ratio of the MIC value in the second time frame over the MIC value in the first time frame is higher than or equal to 8 then the ratio is labelled to be heteroresistant)
MIC (3 h, KP/38.3002, FIG. 5C, Table 5, 3 h-4 h, read-out: MIC (25%) T1): 16 µg/mL (≈ 53.4 µM)
MIC (3 h, KP/38.3002, FIG. 5C, Table 5, 3 h-4 h, read-out: MIC (40%) T1): 0.25 µg/mL (≈ 0.835 µM)
MIC (3 h, KP/38.3002, FIG. 5C, Table 5, 3 h-4 h, read-out: MIC (60%) T1): 0.25 µg/mL (≈ 0.835 µM)
MIC (3 h, KP/38.3002, FIG. 5C, Table 5, 3 h-4 h, read-out: MIC (75%) T1): 0.25 µg/mL (≈ 0.835 µM)
MIC (3 h, KP/153.4346, 3 h-4 h, read-out: MIC (25%) T1): > 256 µg/mL
MIC (3 h, KP/153.4346, 3 h-4 h, read-out: MIC (40%) T1): > 256 µg/mL
MIC (3 h, KP/153.4346, 3 h-4 h, read-out: MIC (60%) T1): 0.5 µg/mL (≈ 1.67 µM)
MIC (3 h, KP/153.4346, 3 h-4 h, read-out: MIC (75%) T1): 0.5 µg/mL (≈ 1.67 µM)
MIC (3 h, MP/072.3489, 3 h-4 h, read-out: MIC (25%) T1): 0.5 µg/mL (≈ 1.67 µM)
MIC (3 h, MP/072.3489, 3 h-4 h, read-out: MIC (40%) T1): 0.5 µg/mL (≈ 1.67 µM)
MIC (3 h, MP/072.3489, 3 h-4 h, read-out: MIC (60%) T1): 0.35 µg/mL (≈ 1.17 µM)
MIC (3 h, MP/072.3489, 3 h-4 h, read-out: MIC (75%) T1): < 0.125 µg/mL
MIC (4 h, KP/38.3002, FIG. 5C, Table 5, 4 h-5 h, read-out: MIC (25%) T2): 16 µg/mL (≈ 53.4 µM)
MIC (4 h, KP/38.3002, FIG. 5C, Table 5, 4 h-5 h, read-out: MIC (40%) T2): 8 µg/mL (≈ 26.7 µM)
MIC (4 h, KP/38.3002, FIG. 5C, Table 5, 4 h-5 h, read-out: MIC (60%) T2): 8 µg/mL (≈ 26.7 µM)
MIC (4 h, KP/38.3002, FIG. 5C, Table 5, 4 h-5 h, read-out: MIC (75%) T2): 8 µg/mL (≈ 26.7 µM)
MIC (4 h, KP/153.4346, 4 h-5 h, read-out: MIC (25%) T2): > 256 µg/mL
MIC (4 h, KP/153.4346, 4 h-5 h, read-out: MIC (40%) T2): > 256 µg/mL
MIC (4 h, KP/153.4346, 4 h-5 h, read-out: MIC (60%) T2): 16 µg/mL (≈ 53.4 µM)
MIC (4 h, KP/153.4346, 4 h-5 h, read-out: MIC (75%) T2): 16 µg/mL (≈ 53.4 µM)
MIC (4 h, MP/072.3489, 4 h-5 h, read-out: MIC (25%) T2): 16 µg/mL (≈ 53.4 µM)
MIC (4 h, MP/072.3489, 4 h-5 h, read-out: MIC (40%) T2): 8 µg/mL (≈ 26.7 µM)
MIC (4 h, MP/072.3489, 4 h-5 h, read-out: MIC (60%) T2): 8 µg/mL (≈ 26.7 µM)
MIC (4 h, MP/072.3489, 4 h-5 h, read-out: MIC (75%) T2): 8 µg/mL (≈ 26.7 µM)
MIC (5 h, KP/38.3002, FIG. 5H, both repetitions, read-out: MIC value determined by the method): 16 µg/mL (≈ 53.4 µM)
MIC (KP/38.3002, FIG. 5C, overall conclusion, read-out: MIC value determined by the method): 16 µg/mL (≈ 53.4 µM)
MIC (KP/38.3002, FIG. 5H repetition, Table 10, 3 h-4 h, read-out: MIC (25%) T1): 0.5 µg/mL (≈ 1.67 µM)

Reference: patent US20220389477A1, “METHOD FOR EVALUATING ANTIBIOTIC SUSCEPTIBILITY” (Vrije Universiteit Brussel, priority 2019, published 2022)
